According to patent publication US20240150298A1, “ANTIBACTERIAL COMPOUNDS” (Blacksmith Medicines, Inc., priority 2021, published 2024):
In brackets after ≈: the same amount, converted by molar mass. Where two headings read alike, the source gives them in different places.

Experiments:
E. coli ATCC25922 = assay: Bacterial susceptibility testing, MIC by broth microdilution (CLSI); assay type: cell-based; conditions: for MIC: Escherichia coli
Outline: (§1)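 Broth microdilution per CLSI in cation-adjusted Mueller-Hinton broth, inoculum 3×10^5–7×10^5 CFU/mL, 2-fold serial drug dilutions in DMSO. Incubated in ambient air at 35° C for 18-24 h. MIC taken as lowest concentration preventing visible growth (OD600 nm<0.05).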

K. pneumoniae ATCC13883 = assay: as above; assay type: cell-based; conditions: for MIC: Klebsiella pneumoniae
Outline: as §1

P. aeruginosa 209 PAO1 = assay: as above; assay type: cell-based; conditions: for MIC: Pseudomonas aeruginosa
Outline: as §1

P. aeruginosa ATCC27835 = assay: as above; assay type: cell-based; conditions: for MIC: Pseudomonas aeruginosa
Outline: as §1

E. coli LpxC = E. coli LpxC (Escherichia coli, UniProt P0A725); assay: LpxC Binding Assay (Rapid Fire MS assay); assay type: biochemical
Chain of E. coli LpxC (P0A725 whole entry): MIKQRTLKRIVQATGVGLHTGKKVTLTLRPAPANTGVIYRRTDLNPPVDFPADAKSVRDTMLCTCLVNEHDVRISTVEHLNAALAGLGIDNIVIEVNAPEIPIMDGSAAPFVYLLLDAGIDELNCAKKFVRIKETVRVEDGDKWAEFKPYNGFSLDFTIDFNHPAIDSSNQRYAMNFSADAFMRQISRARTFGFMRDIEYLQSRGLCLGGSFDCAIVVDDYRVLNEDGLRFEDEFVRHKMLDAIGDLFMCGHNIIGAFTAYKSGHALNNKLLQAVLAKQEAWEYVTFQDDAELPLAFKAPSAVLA
Procedure: (§2) IC50 values against E. coli and P. aeruginosa LpxC are determined using a Rapid Fire MS assay as previously described J. Med. Chem. 2012, 55, 1662-1670.

P. aeruginosa LpxC = target: T1, P. aeruginosa LpxC (Pseudomonas aeruginosa, UniProt P47205); assay: LpxC Binding Assay (Rapid Fire MS assay); assay type: biochemical
T1 sequence (P47205 1-303): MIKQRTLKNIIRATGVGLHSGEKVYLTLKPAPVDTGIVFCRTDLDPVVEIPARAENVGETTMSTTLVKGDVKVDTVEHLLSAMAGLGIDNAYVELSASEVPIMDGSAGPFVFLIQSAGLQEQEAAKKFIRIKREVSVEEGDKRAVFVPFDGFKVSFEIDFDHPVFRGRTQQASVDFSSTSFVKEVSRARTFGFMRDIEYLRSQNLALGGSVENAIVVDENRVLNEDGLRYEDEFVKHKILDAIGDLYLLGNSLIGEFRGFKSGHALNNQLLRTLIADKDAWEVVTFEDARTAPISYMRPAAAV
Procedure: as §2

K. pneumoniae LpxC = K. pneumoniae LpxC (Klebsiella pneumoniae subsp. pneumoniae, UniProt A6T4N9); assay: LpxC Binding Assay (Rapid Fire MS assay); assay type: biochemical
Chain of K. pneumoniae LpxC (A6T4N9 whole entry): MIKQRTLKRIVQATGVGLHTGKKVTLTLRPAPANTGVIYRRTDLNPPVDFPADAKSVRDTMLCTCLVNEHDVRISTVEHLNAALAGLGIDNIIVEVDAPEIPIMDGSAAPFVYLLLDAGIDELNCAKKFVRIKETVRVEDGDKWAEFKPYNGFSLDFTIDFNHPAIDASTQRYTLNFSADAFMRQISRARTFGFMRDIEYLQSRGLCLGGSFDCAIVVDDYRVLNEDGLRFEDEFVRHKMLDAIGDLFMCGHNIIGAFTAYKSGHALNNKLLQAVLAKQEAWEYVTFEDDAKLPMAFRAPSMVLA

[1] = ATCC25922, broth microdilution, 35° C., 18-24 h, read-out: MIC E. coli ATCC25922
[2] = ATCC13883, broth microdilution, 35° C., 18-24 h, read-out: MIC K. pneumoniae ATCC13883
[3] = PAO1, broth microdilution, 35° C., 18-24 h, read-out: MIC P. aeruginosa 209 PAO1
[4] = ATCC27835, broth microdilution, 35° C., 18-24 h, read-out: MIC P. aeruginosa ATCC27835
[5] = broth microdilution, 35° C., 18-24 h

| SMILES | MIC (E. coli ATCC25922; [1]) | MIC (K. pneumoniae ATCC13883; [2]) | MIC (P. aeruginosa 209 PAO1; [3]) | MIC (P. aeruginosa ATCC27835; [4]) | IC50 (E. coli LpxC) | IC50 (P. aeruginosa LpxC) | IC50 (K. pneumoniae LpxC) | MIC E. coli ATCC25922 (E. coli ATCC25922; [5]) | MIC K. pneumoniae ATCC13883 (K. pneumoniae ATCC13883; [5]) | MIC P. aeruginosa 209 PAO1 (P. aeruginosa 209 PAO1; [5]) | MIC P. aeruginosa ATCC27835 (P. aeruginosa ATCC27835; [5]) | MIC (E. coli ATCC25922; ATCC25922, read-out: MIC E. coli ATCC25922) | MIC (K. pneumoniae ATCC13883; ATCC13883, read-out: MIC K. pneumoniae ATCC13883) | MIC (P. aeruginosa 209 PAO1; PAO1, read-out: MIC P. aeruginosa 209 PAO1) | MIC (P. aeruginosa ATCC27835; ATCC27835, read-out: MIC P. aeruginosa ATCC27835) |
| --- | --- | --- | --- | --- | --- | --- | --- | --- | --- | --- | --- | --- | --- | --- | --- |
| C[C@H](O)c1nccn1C/C=C/c1ccc(-c2ccc(OC[C@H](N)CO)cc2)cc1 [Compound 3, (R)-2-amino-3-((4′-((E)-3-(2-((S)-1-hydroxyethyl)-1H-imidazol-1-yl)prop-1-en-1-yl)-[1,1′-biphenyl]-4-yl)oxy)propan-1-ol] | 2 µg/mL (≈ 5.08 µM) | 8 µg/mL (≈ 20.3 µM) | 4 µg/mL (≈ 10.2 µM) | 4 µg/mL (≈ 10.2 µM) | 11.4 nM | 132 nM | – | – | – | – | – | – | – | – | – |
| C[C@H](O)c1nccn1[C@@H](/C=C/c1ccc(-c2ccc(OC[C@@H](O)CN(C)C)cc2)cc1)CO [Compound 26, (S,E)-4-(4′-((S)-3-(dimethylamino)-2-hydroxypropoxy)-[1,1′-biphenyl]-4-yl)-2-(2-((S)-1-hydroxyethyl)-1H-imidazol-1-yl)but-3-en-1-ol] | – | 2 µg/mL (≈ 4.43 µM) | 4 µg/mL (≈ 8.86 µM) | 8 µg/mL (≈ 17.7 µM) | 0.6 nM | 17.4 nM | 1.4 nM | – | – | – | – | – | – | – | – |
| C[C@H](O)c1nccn1[C@@H](/C=C/c1ccc(-c2ccc(O[C@H]3COC[C@@H]3O)cc2)cc1)CO (racemic) [Compound 35, (trans)-4-((4′-((S,E)-4-hydroxy-3-(2-((S)-1-hydroxyethyl)-1H-imidazol-1-yl)but-1-en-1-yl)-[1,1′-biphenyl]-4-yl)oxy)tetrahydrofuran-3-ol] | – | 2 µg/mL (≈ 4.58 µM) | 1 µg/mL (≈ 2.29 µM) | 4 µg/mL (≈ 9.16 µM) | < 0.5 nM | 8.2 nM | 0.9 nM | – | – | – | – | – | – | – | – |
| C[C@H](O)c1nccn1[C@@H](/C=C/c1ccc(-c2ccc(OCC(CO)CO)cc2)cc1)CO [Compound 33, 2-(((4′-((S,E)-4-hydroxy-3-(2-((S)-1-hydroxyethyl)-1H-imidazol-1-yl)but-1-en-1-yl)-[1,1′-biphenyl]-4-yl)oxy)methyl)propane-1,3-diol] | – | 8 µg/mL (≈ 18.2 µM) | 2 µg/mL (≈ 4.56 µM) | 4 µg/mL (≈ 9.12 µM) | 1 nM | 11.9 nM | 1.6 nM | – | – | – | – | – | – | – | – |
| C[C@H](O)c1nccn1[C@@H](/C=C/c1ccc(-c2ccc(C3CC(N4CC(O)C4)C3)cc2)cc1)CO (stereo partly drawn) [Compound 38, 1-(3-(4′-((S,E)-4-hydroxy-3-(2-((S)-1-hydroxyethyl)-1H-imidazol-1-yl)but-1-en-1-yl)-[1,1′-biphenyl]-4-yl)cyclobutyl)azetidin-3-ol] | – | 2 µg/mL (≈ 4.35 µM) | 2 µg/mL (≈ 4.35 µM) | 2 µg/mL (≈ 4.35 µM) | 0.9 nM | 27.5 nM | 1.6 nM | – | – | – | – | – | – | – | – |
| C[C@H](O)c1nccn1[C@@H](/C=C/c1ccc(-c2ccc(C3CC(O)C3)cc2)cc1)CO (stereo partly drawn) [Compound 39, 3-(4′-((S,E)-4-hydroxy-3-(2-((S)-1-hydroxyethyl)-1H-imidazol-1-yl)but-1-en-1-yl)-[1,1′-biphenyl]-4-yl)cyclobutan-1-ol] | – | 0.5 µg/mL (≈ 1.24 µM) | 1 µg/mL (≈ 2.47 µM) | 4 µg/mL (≈ 9.89 µM) | < 0.5 nM | 12.6 nM | 0.6 nM | – | – | – | – | – | – | – | – |
| C[C@H](O)c1nccn1C/C=C/c1ccc(-c2ccc(O[C@@H]3C[C@H]3N)cc2)cc1 (racemic) [Compound 4, (S)-1-(1-((E)-3-(4′-((trans)-2-aminocyclopropoxy)-[1,1′-biphenyl]-4-yl)allyl)-1H-imidazol-2-yl)ethan-1-ol] | 0.12 µg/mL (≈ 0.32 µM) | 0.12 µg/mL (≈ 0.32 µM) | 2 µg/mL (≈ 5.33 µM) | 4 µg/mL (≈ 10.7 µM) | 9.25 nM | 23.2 nM | – | – | – | – | – | – | – | – | – |
| C[C@H](O)c1nccn1[C@@H](/C=C/c1ccc(-c2ccc(OCC(N)CO)cc2)cc1)CO (mixture of isomers) [Compound 25, (2S,E)-4-(4′-(2-amino-3-hydroxypropoxy)-[1,1′-biphenyl]-4-yl)-2-(2-((S)-1-hydroxyethyl)-1H-imidazol-1-yl)but-3-en-1-ol] | – | – | – | – | 44.6 nM | 70.6 nM | – | 2 µg/mL (≈ 4.72 µM) | 4 µg/mL (≈ 9.44 µM) | 2 µg/mL (≈ 4.72 µM) | 2 µg/mL (≈ 4.72 µM) | – | – | – | – |
| C[C@H](O)c1nccn1[C@@H](/C=C/c1ccc(-c2ccc(OCC(CO)N(C)C)cc2)cc1)CO (mixture of isomers) [Compound 12, (2S,E)-4-(4′-(2-(dimethylamino)-3-hydroxypropoxy)-[1,1′-biphenyl]-4-yl)-2-(2-((S)-1-hydroxyethyl)-1H-imidazol-1-yl)but-3-en-1-ol] | 4 µg/mL (≈ 8.86 µM) | 16 µg/mL (≈ 35.4 µM) | 4 µg/mL (≈ 8.86 µM) | 4 µg/mL (≈ 8.86 µM) | 82.5 nM | 69.2 nM | – | – | – | – | – | – | – | – | – |
| C[C@H](O)c1nccn1C/C=C/c1ccc(-c2ccc(OC3CCN(CC(O)CO)CC3)cc2)cc1 (stereo partly drawn) [Compound 2, 3-(4-((4′-((E)-3-(2-((S)-1-hydroxyethyl)-1H-imidazol-1-yl)prop-1-en-1-yl)-[1,1′-biphenyl]-4-yl)oxy)piperidin-1-yl)propane-1,2-diol] | 1 µg/mL (≈ 2.09 µM) | 2 µg/mL (≈ 4.19 µM) | 4 µg/mL (≈ 8.38 µM) | 4 µg/mL (≈ 8.38 µM) | 17 nM | 15.5 nM | – | – | – | – | – | – | – | – | – |
| C[C@H](O)c1nccn1C/C=C/c1ccc(-c2ccc(OC3CCN(CCO)CC3)cc2)cc1 [Compound 1, (S,E)-2-(4-((4′-(3-(2-(1-hydroxyethyl)-1H-imidazol-1-yl)prop-1-en-1-yl)-[1,1′-biphenyl]-4-yl)oxy)piperidin-1-yl)ethan-1-ol] | 1 µg/mL (≈ 2.23 µM) | 1 µg/mL (≈ 2.23 µM) | 4 µg/mL (≈ 8.94 µM) | 4 µg/mL (≈ 8.94 µM) | 25.8 nM | 81 nM | – | – | – | – | – | – | – | – | – |
| C[C@H](O)c1nccn1[C@@H](/C=C/c1ccc(-c2ccc(O[C@H]3C[C@@H]3N)cc2)cc1)CO (single isomer, unassigned) [Compound 14] | 1 µg/mL (≈ 2.47 µM) | 2 µg/mL (≈ 4.93 µM) | 1 µg/mL (≈ 2.47 µM) | 8 µg/mL (≈ 19.7 µM) | 9.51 nM | 22.3 nM | – | – | – | – | – | – | – | – | – |
| C[C@H](O)c1nccn1[C@@H](/C=C/c1ccc(-c2ccc([C@H]3C[C@H](NC(=O)CO)C3)cc2)cc1)CO [Compound 64, 2-hydroxy-N-((1S,3r)-3-(4′-((S,E)-4-hydroxy-3-(2-((S)-1-hydroxyethyl)-1H-imidazol-1-yl)but-1-en-1-yl)-[1,1′-biphenyl]-4-yl)cyclobutyl)acetamide] | – | – | – | – | – | – | – | – | – | – | – | 1 µg/mL (≈ 2.17 µM) | 2 µg/mL (≈ 4.33 µM) | 1 µg/mL (≈ 2.17 µM) | 2 µg/mL (≈ 4.33 µM) |
| C[C@H](O)c1nccn1[C@@H](/C=C/c1ccc(-c2ccc(C3CC(CNC(C#N)CO)C3)cc2)cc1)CO (stereo partly drawn) [Compound 59, 3-hydroxy-2-(((3-(4′-((S,E)-4-hydroxy-3-(2-((S)-1-hydroxyethyl)-1H-imidazol-1-yl)but-1-en-1-yl)-[1,1′-biphenyl]-4-yl)cyclobutyl)methyl)amino)propane nitrile] | 2 µg/mL (≈ 4.11 µM) | 4 µg/mL (≈ 8.22 µM) | 2 µg/mL (≈ 4.11 µM) | 4 µg/mL (≈ 8.22 µM) | – | – | – | – | – | – | – | – | – | – | – |
| C[C@H](O)c1nccn1[C@@H](/C=C/c1ccc(-c2ccc(C3CC(CNCCO)C3)cc2)cc1)CO (stereo partly drawn) [Compound 61, (S,E)-2-(2-((S)-1-hydroxyethyl)-1H-imidazol-1-yl)-4-(4′-(3-(((2-hydroxyethyl)amino)methyl)cyclobutyl)-[1,1′-biphenyl]-4-yl) but-3-en-1-ol] | 2 µg/mL (≈ 4.33 µM) | 8 µg/mL (≈ 17.3 µM) | 4 µg/mL (≈ 8.67 µM) | 4 µg/mL (≈ 8.67 µM) | – | – | – | – | – | – | – | – | – | – | – |
| C[C@H](O)c1nccn1[C@@H](/C=C/c1ccc(-c2ccc(C3CC(CNCC(O)CO)C3)cc2)cc1)CO (stereo partly drawn) [Compound 60, 3-(((3-(4′-((S,E)-4-hydroxy-3-(2-((S)-1-hydroxyethyl)-1H-imidazol-1-yl)but-1-en-1-yl)-[1,1′-biphenyl]-4-yl)cyclobutyl)methyl)amino) propane-1,2-diol] | 8 µg/mL (≈ 16.3 µM) | 16 µg/mL (≈ 32.5 µM) | 4 µg/mL (≈ 8.14 µM) | 4 µg/mL (≈ 8.14 µM) | – | – | – | – | – | – | – | – | – | – | – |
